System: SARS-CoV-2
Assay type: cell-based

Row | Structure (SMILES) | block of the cytopathic effect (CPE) of SARS-CoV-2
1 | COc1cccc2[nH]c(C(=O)N[C@@H](CC(C)C)C(=O)N[C@@H](C[C@@H]3CCNC3=O)C(=O)c3nc4ccccc4s3)cc12 [GRL-2420S] | significantly block the cytopathic effect
2 | O=C(Oc1cncc(Cl)c1)c1cccc2c1CCN2 [CTRL-1720S] | significantly block the cytopathic effect

From US20230159516A1 (priority 2020, published 2023)
